From patent US10407409B2, “6-(5-hydroxy-1H-pyrazol-1-yl)nicotinamide inhibitors of PHD” (Takeda Pharmaceutical Company Limited, priority 2013, dated 2019)

Assays:
[1] = target: PHD2 enzyme (residues 181-417) (Homo sapiens (Human), UniProt Q9GZT9); experiment: Inhibition of PHD enzyme (LC/MS peptide hydroxylation assay); type: biochemical; settings: PHD2 (residues 181-417) 5 nM, 60 min pre-incubation; -log(IC50), IC50 molar
Summary of the method: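 Hydroxylated peptide quantified by LC/MS after 60 min turnover of 1 uM biotinylated peptide with 2 uM 2-oxoglutarate and 1 mM ascorbate, stopped by excess tight-binding inhibitor. Beforehand, 5 nM enzyme and compound were preincubated 60 min at RT, pH 7.3 HEPES/KCl/TCEP/FeCl2/BSA buffer. Values as pIC50 (−log molar IC50).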

[2] = system: HIF1a protein in H9c2 rat cardiomyocytes; experiment: Cell-based HIF-alpha stabilization assay (inhibition of PHD in cells); settings: Rattus norvegicus, H9c2, 24 h, 24 hrs compound incubation, HIF1a protein by ELISA, read-out: Inhibition of PHD in cells (pEC50) (converted)
Summary of the method: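 HIF1a stabilization was measured by ELISA on lysates of H9c2 rat cardiomyocytes after 24 h exposure to 11 serial compound concentrations, expressed relative to the desferrioxamine maximum. Curve fits gave EC50. EC50pos denotes the concentration producing half the desferrioxamine maximal response.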

Chain of PHD2 enzyme (residues 181-417) (Q9GZT9 181-417): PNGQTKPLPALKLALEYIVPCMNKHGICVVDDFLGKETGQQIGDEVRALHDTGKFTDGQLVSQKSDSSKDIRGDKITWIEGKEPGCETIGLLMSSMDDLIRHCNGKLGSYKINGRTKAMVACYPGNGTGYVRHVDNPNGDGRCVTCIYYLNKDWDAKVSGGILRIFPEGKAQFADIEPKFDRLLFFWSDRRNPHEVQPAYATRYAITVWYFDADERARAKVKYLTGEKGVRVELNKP

Structure (SMILES)	PHD Inhibition (pIC50) [1]	EC50 [2] [nM]
N#Cc1ccc(-c2cnn(-c3ccc(C(=O)N[C@H]4CC[C@H](O)CC4)cn3)c2O)cc1 [Example 165, 6-(4-(4-cyanophenyl)-5-hydroxy-1H-pyrazol-1-yl)-N-((1r,4r)-4-hydroxycyclohexyl)nicotinamide]	7.68	251
COc1cc(-c2cnn(-c3ccc(C(=O)N[C@H]4CC[C@@H](O)CC4)cn3)c2O)ccn1 [Example 166, 6-(5-hydroxy-4-(2-methoxypyridin-4-yl)-1H-pyrazol-1-yl)-N-((1s,4s)-4-hydroxycyclohexyl)nicotinamide]	7.28	437
COc1cc(-c2cnn(-c3ccc(C(=O)N[C@H]4CC[C@H](O)CC4)cn3)c2O)ccn1 [Example 167, 6-(5-hydroxy-4-(2-methoxypyridin-4-yl)-1H-pyrazol-1-yl)-N-((1r,4r)-4-hydroxycyclohexyl)nicotinamide]	7.46	282
COCCC1(NC(=O)c2ccc(-n3ncc(-c4ccc(C#N)cc4OC)c3O)nc2)CC1 [Example 168, 6-(4-(4-cyano-2-methoxyphenyl)-5-hydroxy-1H-pyrazol-1-yl)-N-(1-(2-methoxyethyl)cyclopropyl)nicotinamide]	8.1	437
C[C@H]1C[C@@H]1NC(=O)c1ccc(-n2ncc(-c3ccc(C#N)cc3)c2O)nc1 [Example 169, 6-(4-(4-cyanophenyl)-5-hydroxy-1H-pyrazol-1-yl)-N-((1s,2s)-2-methylcyclopropyl)nicotinamide]	7.22	891
C[C@@H](NC(=O)c1ccc(-n2ncc(-c3ccc(C#N)cc3)c2O)nc1)C(F)(F)F [Example 170, (R)-6-(4-(4-cyanophenyl)-5-hydroxy-1H-pyrazol-1-yl)-N-(1,1,1-trifluoropropan-2-yl)nicotinamide]	7.29	2750
C[C@H](NC(=O)c1ccc(-n2ncc(-c3ccc(C#N)cc3)c2O)nc1)C(F)(F)F [Example 171, (S)-6-(4-(4-cyanophenyl)-5-hydroxy-1H-pyrazol-1-yl)-N-(1,1,1-trifluoropropan-2-yl)nicotinamide]	7.18	1450
C[C@@H](NC(=O)c1ccc(-n2ncc(-c3ccc(C#N)cc3)c2O)nc1)C1CCOCC1 [Example 172, (R)-6-(4-(4-cyanophenyl)-5-hydroxy-1H-pyrazol-1-yl)-N-(1-(tetrahydro-2H-pyran-4-yl)ethyl)nicotinamide]	7.33	1260
C[C@H](NC(=O)c1ccc(-n2ncc(-c3ccc(C#N)cc3)c2O)nc1)C1CCOCC1 [Example 173, (S)-6-(4-(4-cyanophenyl)-5-hydroxy-1H-pyrazol-1-yl)-N-(1-(tetrahydro-2H-pyran-4-yl)ethyl)nicotinamide]	7.21	1100
N#Cc1ccc(-c2cnn(-c3ccc(C(=O)NCCC4CCOCC4)cn3)c2O)cc1 [Example 174, 6-(4-(4-cyanophenyl)-5-hydroxy-1H-pyrazol-1-yl)-N-(2-(tetrahydro-2H-pyran-4-yl)ethyl)nicotinamide]	7.31	759
COCCC(C)(C)NC(=O)c1ccc(-n2ncc(-c3ccc(C#N)cc3)c2O)nc1 [Example 175, 6-(4-(4-cyanophenyl)-5-hydroxy-1H-pyrazol-1-yl)-N-(4-methoxy-2-methylbutan-2-yl)nicotinamide]	7.37	490
COCCC(C)NC(=O)c1ccc(-n2ncc(-c3ccc(C#N)cc3)c2O)nc1 (centres unmarked) [Example 176, 6-(4-(4-cyanophenyl)-5-hydroxy-1H-pyrazol-1-yl)-N-(4-methoxybutan-2-yl)nicotinamide]	7.53	398
N#Cc1ccc(-c2cnn(-c3ccc(C(=O)NCCC4CCOC4)cn3)c2O)cc1 (centres unmarked) [Example 177, 6-(4-(4-cyanophenyl)-5-hydroxy-1H-pyrazol-1-yl)-N-(2-(tetrahydrofuran-3-yl)ethyl)nicotinamide]	7.64	309
N#Cc1ccc(-c2cnn(-c3ccc(C(=O)NCCC4CCCOC4)cn3)c2O)cc1 (centres unmarked) [Example 178, 6-(4-(4-cyanophenyl)-5-hydroxy-1H-pyrazol-1-yl)-N-(2-(tetrahydro-2H-pyran-3-yl)ethyl)nicotinamide]	7.63	282
COCCCCNC(=O)c1ccc(-n2ncc(-c3ccc(C#N)cc3C)c2O)nc1 [Example 179, 6-(4-(4-cyano-2-methylphenyl)-5-hydroxy-1H-pyrazol-1-yl)-N-(4-methoxybutyl)nicotinamide]	8.3	123
Cc1cc(C#N)ccc1-c1cnn(-c2ccc(C(=O)NCC3CCC3)cn2)c1O [Example 180, 6-(4-(4-cyano-2-methylphenyl)-5-hydroxy-1H-pyrazol-1-yl)-N-(cyclobutylmethyl)nicotinamide]	8.2	398

Structure (SMILES)	PHD Inhibition (pIC50) [1]	EC50 [2] [nM]
COC(C)CCNC(=O)c1ccc(-n2ncc(-c3ccc(C#N)cc3C)c2O)nc1 (centres unmarked) [Example 181, 6-(4-(4-cyano-2-methylphenyl)-5-hydroxy-1H-pyrazol-1-yl)-N-(3-methoxybutyl)nicotinamide]	8.2	324
COCC(C)CNC(=O)c1ccc(-n2ncc(-c3ccc(C#N)cc3C)c2O)nc1 (centres unmarked) [Example 182, 6-(4-(4-cyano-2-methylphenyl)-5-hydroxy-1H-pyrazol-1-yl)-N-(3-methoxy-2-methylpropyl)nicotinamide]	8.1	309
Cc1cc(C#N)ccc1-c1cnn(-c2ccc(C(=O)N[C@H]3CC[C@H](C)CC3)cn2)c1O [Example 183, 6-(4-(4-cyano-2-methylphenyl)-5-hydroxy-1H-pyrazol-1-yl)-N-((1r,4r)-4-methylcyclohexyl)nicotinamide]	7.9	646
COC1CN(C(=O)c2ccc(-n3ncc(-c4ccc(C#N)cc4C)c3O)nc2)C1 [Example 184, 4-(5-hydroxy-1-(5-(3-methoxyazetidine-1-carbonyl)pyridin-2-yl)-1H-pyrazol-4-yl)-3-methylbenzonitrile]	8.1	214
Cc1cc(C#N)ccc1-c1cnn(-c2ccc(C(=O)N3CC4(COC4)C3)cn2)c1O [Example 185, 4-(1-(5-(2-oxa-6-azaspiro[3.3]heptane-6-carbonyl)pyridin-2-yl)-5-hydroxy-1H-pyrazol-4-yl)-3-methylbenzonitrile]	8	562
Cc1cc(C#N)ccc1-c1cnn(-c2ccc(C(=O)NC3CN(C)C3)cn2)c1O [Example 186, 6-(4-(4-cyano-2-methylphenyl)-5-hydroxy-1H-pyrazol-1-yl)-N-(1-methylazetidin-3-yl)nicotinamide]	7.8	295
Cc1cc(C#N)ccc1-c1cnn(-c2ccc(C(=O)NC(C)(C)CN(C)C)cn2)c1O [Example 187, 6-(4-(4-cyano-2-methylphenyl)-5-hydroxy-1H-pyrazol-1-yl)-N-(1-(dimethylamino)-2-methylpropan-2-yl)nicotinamide]	7.8	355
N#Cc1ccc(-c2cnn(-c3ccc(C(=O)NCc4ccccc4)cn3)c2O)cc1F [Example 188, N-benzyl-6-(4-(4-cyano-3-fluorophenyl)-5-hydroxy-1H-pyrazol-1-yl)nicotinamide]	7.3	5250
N#Cc1ccc(-c2cnn(-c3ccc(C(=O)NCC4CCOCC4)cn3)c2O)cc1F [Example 189, 6-(4-(4-cyano-3-fluorophenyl)-5-hydroxy-1H-pyrazol-1-yl)-N-((tetrahydro-2H-pyran-4-yl)methyl)nicotinamide]	7.49	4680
O=C(NCC1CCOCC1)c1ccc(-n2ncc(-n3ccc(=O)cc3)c2O)nc1 [Example 190, 6-(5-hydroxy-4-(4-oxopyridin-1(4H)-yl)-1H-pyrazol-1-yl)-N-((tetrahydro-2H-pyran-4-yl)methyl)nicotinamide]	7	15800
O=C(NCc1ccccc1)c1ccc(-n2ncc(-n3ccc(=O)cc3)c2O)nc1 [Example 191, N-benzyl-6-(5-hydroxy-4-(4-oxopyridin-1(4H)-yl)-1H-pyrazol-1-yl)nicotinamide]	7.19	6760
O=C(NCC1CCOCC1)c1ccc(-n2ncc(-n3ccccc3=O)c2O)nc1 [Example 192, 6-(5-hydroxy-4-(2-oxopyridin-1(2H)-yl)-1H-pyrazol-1-yl)-N-((tetrahydro-2H-pyran-4-yl)methyl)nicotinamide]	6.84	50100
O=C(NCc1ccccc1)c1ccc(-n2ncc(-n3ccccc3=O)c2O)nc1 [Example 193, N-benzyl-6-(5-hydroxy-4-(2-oxopyridin-1(2H)-yl)-1H-pyrazol-1-yl)nicotinamide]	7.57	2690
COc1cc(C#N)ccc1-c1cnn(-c2ccc(C(=O)NCC3CCOCC3)cn2)c1O [Example 194, 6-(4-(4-cyano-2-methoxyphenyl)-5-hydroxy-1H-pyrazol-1-yl)-N-((tetrahydro-2H-pyran-4-yl)methyl)nicotinamide]	7.3	513
COc1cc(C#N)ccc1-c1cnn(-c2ccc(C(=O)NCc3ccccc3)cn2)c1O [Example 195, N-benzyl-6-(4-(4-cyano-2-methoxyphenyl)-5-hydroxy-1H-pyrazol-1-yl)nicotinamide]	7.01	2510
